Results as given in patent US8557840B2, “Herbicidal compounds” (Syngenta Limited, priority 2008, dated 2013).

Columns and labels:
Type in all cases: in vivo
test plants = experiment: Herbicidal action, post-emergence (Example B2), all test plants, result in words; details: same protocol as Example B2, post-emergence
Procedure: Seeds of a variety of test species were sown in standard soil in pots. After 8 days cultivation (post-emergence) under controlled conditions in a glasshouse (at 24/16° C., day/night; 14 hours light; 65% humidity), the plants were sprayed with an aqueous spray solution derived from the formulation of the technical active ingredient in acetone/water (50:50) solution containing 0.5% Tween 20 (polyoxyethelyene sorbitan monolaurate, CAS RN 9005-64-5). The test plants were then grown in a glasshouse under controlled conditions in a glasshouse (at 24/16° C., day/night; 14 hours light; 65% humidity) and watered twice daily. After 13 days, the test was evaluated (10=total damage to plant; 0=no damage to plant).

Amaranthus retroflexus = experiment: Herbicidal action, post-emergence, seed trays in climatic chamber (Example B1); details: 1000 g/ha, evaluated after 9 days, 10=total damage to plant, 0=no damage to plant
Procedure: (§1) Seeds of a variety of test species were sown in sterilised standard soil in seed trays each having 96 cells. […] The plants were grown in the climatic chamber after application at (24/19° C., day/night; 13 hours light; 50-60% humidity) and watered twice daily. After 9 days until the test was evaluated (10=total damage to plant, 0=no damage to plant)

Nasturtium officinale = experiment: as above; details: 1000 g/ha, evaluated after 9 days, 10=total damage to plant, 0=no damage to plant
Procedure: as §1

Solanum nigrum = experiment: as above; details: 1000 g/ha, evaluated after 9 days, 10=total damage to plant, 0=no damage to plant
Procedure: as §1

Stellaria media = experiment: as above; details: 1000 g/ha, evaluated after 9 days, 10=total damage to plant, 0=no damage to plant
Procedure: as §1

Row | SMILES | damage to the test plants (test plants) | AMARE damage to plant (Amaranthus retroflexus) | NAAOF damage to plant (Nasturtium officinale) | SOLNI damage to plant (Solanum nigrum) | STEME damage to plant (Stellaria media)
1 | Cc1cc(Cl)c2c(OC(=O)C(C)(C)C)c(-c3c(F)ccc(F)c3Cl)c(=O)n(C)c2n1 [D19] | little or no damage | – | – | – | –
2 | Cc1cc2c(c(Cl)n1)c(OC(=O)C(C)(C)C)c(-c1c(F)ccc(F)c1Cl)c(=O)n2C [B5] | little or no damage | – | – | – | –
3 | Cn1c(=O)c(-c2c(F)ccc(F)c2Cl)c(OC(=O)C(C)(C)C)c2cc(Br)cnc21 [D13, 2,2-dimethyl-propionic acid 6-bromo-3-(2-chloro-3,6-difluoro-phenyl)-1-methyl-2-oxo-1,2-dihydro-[1,8]naphthyridin-4-yl ester] | little or no damage | – | – | – | –
4 | CCn1c(=O)c(-c2c(F)ccc(F)c2Cl)c(OC(=O)C(C)(C)C)c2cnccc21 [B1, 2,2-dimethyl-propionic acid 3-(2-chloro-3,6-difluoro-phenyl)-1-ethyl-2-oxo-1,2-dihydro-[1,6]naphthyridin-4-yl ester] | little or no damage | – | – | – | –
5 | CC(C)C(=O)Oc1c(-c2c(F)ccc(F)c2Cl)c(=O)n(C)c2cccnc12 [A4] | – | 5 | 6 | 4 | 4
6 | CC(C)(C)C(=O)Oc1c(-c2c(F)ccc(F)c2Cl)c(=O)[nH]c2ncncc12 [E1] | little or no damage | – | – | – | –
7 | O=c1[nH]c2cccnc2c(O)c1-c1cccnc1 [A7] | – | 0 | 2 | 0 | 6
8 | O=c1[nH]c2nncnc2c(O)c1-c1c(F)ccc(F)c1Cl [E4] | – | 2 | 0 | 4 | 0
9 | O=c1[nH]c2cccnc2c(O)c1-c1ccc(Cl)cc1Cl [A1] | – | 0 | 2 | 0 | 0
